From patent US11274101B2, “Heterocyclic compound” (Takeda Pharmaceutical Company Limited, priority 2017, dated 2022)

What was measured:
[1] = target: T1, His-hMAGL (recombinant polyhistidine tagged human MAGL protein) (Homo sapiens, UniProt Q99685); assay: Measurement of MAGL inhibitory activity (arachidonic acid production from 2-arachidonylglycerol, RapidFire-mass spectrometry); format: biochemical; conditions: test compound 10 μM; MAGL inhibitory rate
T1 construct: made in house; host or cells: E. coli BL21(DE3)
T1 sequence (Q99685 1-303): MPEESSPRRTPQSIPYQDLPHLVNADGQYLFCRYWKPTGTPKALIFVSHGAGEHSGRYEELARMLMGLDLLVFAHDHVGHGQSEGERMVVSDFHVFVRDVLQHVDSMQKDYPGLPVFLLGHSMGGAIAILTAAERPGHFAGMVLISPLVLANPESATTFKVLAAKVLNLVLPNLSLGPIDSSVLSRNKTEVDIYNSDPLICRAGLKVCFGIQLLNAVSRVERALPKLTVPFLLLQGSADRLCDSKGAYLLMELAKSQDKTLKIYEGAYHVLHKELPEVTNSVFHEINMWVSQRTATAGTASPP
Experimental: The His-hMAGL obtained above was diluted with enzyme reaction buffer (10 mM Tris-HCl, pH 7.5, 1 mM EDTA, 0.025 (w/v) % Triton X-100, 0.01% Bovine serum albumin) to a concentration of 7.5 ng/mL. To each well of a 384 well assay plate (Greiner 781280) was added a solution (5 μL) of a test compound dissolved in dimethyl sulfoxide (DMSO), which was diluted with the above-mentioned enzyme reaction buffer, then His-hMAGL solution (5 μL) diluted to a concentration of 7.5 ng/mL was added, and the mixture was incubated at room temperature for 60 min. Thereafter, to each well was added 5 μL of 150 μM 2-arachidonylglycerol (Tocris Bioscience), and the mixture was incubated at room temperature for 10 min. Then, 10 μL of 2% formic acid (Wako Pure Chemical Industries, Ltd.) was added to stop the reaction. Furthermore, acetonitrile (50 μL) containing 3 μM arachidonic acid-d8 (Cayman Chemical Company) was added and the mixture was stirred.
The amount of arachidonic acid in the obtained enzyme reaction mixture was calculated by measuring by RapidFire-mass spectrometry and correcting by the amount of arachidonic acid-d8. High Throughput online solid phase extraction was performed using RapidFire 300™ system (Agilent Technologies, Inc.). Samples were loaded on SPE C4 cartridge (Agilent Technologies, Inc.) and desalted with 0.2 (v/v) % acetic acid (Wako Pure Chemical Industries, Ltd.) in ultrapure water/acetonitrile (70/30, v/v) at a flow rate of 1.5 mL/min, eluted at a flow rate of 0.5 mL/min with 0.2 (v/v) % acetic acid dissolved in acetonitrile/ultrapure water (90/10, v/v), and injected into the mass spectrometry part. The injection needle was washed with ultrapure water (500 millisecond) and acetonitrile (500 millisecond) to minimize carry-over. The suction time (injection loop 5 μL), load/cleansing time, elution time and re-equilibration time were adjusted to 300, 3000, 4250 and 1000 milliseconds, respectively, and the total cycle time was adjusted to about 10.0 seconds. The RapidFire300 system was controlled by RapidFire UI software version 3.6 (Agilent Technologies, Inc.).
The mass spectrometry of the resultant product was performed using API4000™ triple quadrupole mass spectrometer (AB SCIEX) equipped with an electrospray ion sauce (TurboIon Spray™) in a negative selected reaction monitoring (SRM) mode. The conditions of SRM are shown below. The parameters of the instrument were optimized as follows: capillary temperature 600° C., ion spray voltage −4.5 kV, collision gas 8, curtain gas 15 psi, ion source gas 1 60 psi, ion source gas 2 60 psi. The mass spectrometer was controlled by Analyst™ software version 1.5.1 (AB SCIEX). The peak area integration was analyzed using RapidFire integrator software version 3.6 (Agilent Technologies, Inc.).
MAGL inhibitory rate (%) was calculated according to the following calculation formula. (1-(arachidonic acid production amount of test compound addition group−arachidonic acid production amount of enzyme-free group)+(arachidonic acid production amount of test compound-free group−arachidonic acid production amount of enzyme-free group))×100

[2] = tested on: intracerebral 2-AG and arachidonic acid; assay: Measurement of intracerebral 2-AG and arachidonic acid concentrations after oral administration; format: in vivo, mouse (C57BL/6J); conditions: for 2-AG concentration / arachidonic acid concentration: male C57BL/6J mice, 1 mg/kg by gavage, cerebrum isolated 1 hour after administration; for 2-AG concentration: control 13.5; for arachidonic acid concentration: control 203.1; for intracerebral 2-AG concentration compared to control / intracerebral arachidonic acid concentration compared to control / migration into brain: oral administration to C57BL/6J mice
Experimental: As the mouse, 8-week-old male C57BL/6J mice (CLEA Japan, Inc.) were used (6 mice/group). Administration solutions were prepared by suspending the test compounds (compound 1 (compound of Example 16), compound 2 (compound of Example 18) and compound 3 (compound of Example 46)) in 0.5% methylcellulose solution (Wako Pure Chemical Industries, Ltd.). The dose of the test compound was prepared to be 1 mg/kg body weight/10 mL. The test compounds were administered by gavage at 1 mg/kg body weight. The cerebrum was isolated after the administration of the test compound (isolation time after the administration of the test compound is shown in Table 3), and the cerebrum hemisphere was extracted. The obtained cerebrum hemisphere was frozen on dry ice, and the frozen tissue weight was measured.
The cerebral tissue was homogenized with 4-fold (v/w) of isopropanol (IPA), and double diluted with IPA. To the diluted sample (200 μL) was added internal standard solution (5 μL) ([5,6,8,9,11,12,14,15-D8]-(5Z,8Z,11Z,14Z)-5,8,11,14-eicosatetraenoic acid (AA-d8, 0.5 nmol/mL IPA) and [5,6,8,9,11,12,14,15-D8]-(5Z,8Z,11Z,14Z)-5,8,11,14-eicosatetraenoyl-2-glycerol ester (2-AG-d8, 0.5 nmol/mL IPA)), and the mixture was centrifuged at 15000 rpm for 5 min. The supernatant was injected to liquid chromatography mass spectrometer for quantitative analysis.
For liquid chromatography, Shimadzu LC20A system (Shimadzu Corporation) was used. The separation was performed by gradient elution method with mobile phase A (10 mmol/L HCOONH4/HCOOH (100:0.2, v/v)) and mobile phase B (ethanol/IPA (3:2, v/v)) using Shim-pack XR-ODS (2.2 μm, 2.0×30 mm, Shimadzu Corporation) at column temperature of 50° C., at flow rate of 0.5 mL/min. The gradient conditions are as follows: 0-1 min, 1% B; 1-1.2 min, 1-55% B; 1.2-2.7 min, 55-75% B; 2.7-3.5 min, 75-99% B; 3.5-6 min, 99% B; 6-8 min, 1% B.
For mass spectrometer, API5000 (AB SCIEX) was used. The eluate from the liquid chromatography was directly ionized by turbospray ionization method, where (5Z,8Z,11Z,14Z)5,8,11,14-eicosatetraenoic acid (AA) and AA-ds were measured by negative ionization mode, and (5Z,8Z,11Z,14Z)5,8,11,14-eicosatetraenoyl-2-glycerol ester (2-AG) and 2-AG-d8 were measured by positive ionization mode.
A solution for calibration curve was prepared to the concentration of 2, 5, 10, 20, 50, 100, 200, 500, 1000 nmol/mL of acetonitrile. These solutions (10 μL) was mixed with 200 μL of IPA and 5 μL of internal standard solution, and the mixture was centrifuged at 15000 rpm for 5 min, and the supernatant was injected to liquid chromatography mass spectrometer. Liner regression with 1/x^2 weighting was used for the calibration curve fitting, and the quantitativity was confirmed by accuracy of 100±20% and R^2>0.99.

Structure (SMILES) | inhibition at 10 µM [1] [%] | 2-AG concentration [2] [nmol/g] | arachidonic acid concentration [2] [nmol/g] | intracerebral 2-AG concentration compared to control [2] | intracerebral arachidonic acid concentration compared to control [2] | migration into brain [2]
O=C1NC2(CO1)CN(C(=O)O[C@H]1C[C@@H](COc3ccc(F)c(F)c3F)C1)C2 [Example 16, cis-3-((2,3,4-trifluorophenoxy)methyl)cyclobutyl 6-oxo-7-oxa-2,5-diazaspiro[3.4]octane-2-carboxylate] | 100 | 82.3 | 119.8 | increased | decreased | migrated into brain
O=C1NC2(CO1)CN(C(=O)O[C@H]1C[C@@H](COc3c(F)cc(F)cc3F)C1)C2 [Example 18, cis-3-((2,4,6-trifluorophenoxy)methyl)cyclobutyl 6-oxo-7-oxa-2,5-diazaspiro[3.4]octane-2-carboxylate] | 102 | 128.7 | 84.3 | increased | decreased | migrated into brain
O=C1NC2(CO1)CN(C(=O)O[C@H]1C[C@@H](Oc3c(F)cc(F)cc3F)C1)C2 [Example 46, cis-3-(2,4,6-trifluorophenoxy)cyclobutyl 6-oxo-7-oxa-2,5-diazaspiro[3.4]octane-2-carboxylate] | 102 | 79.0 | 138.0 | increased | decreased | migrated into brain
Cc1ccc(O[C@H]2C[C@@H](OC(=O)N3CC4(COC(=O)N4)C3)C2)c(F)c1 [Example 56, cis-3-(2-fluoro-4-methylphenoxy)cyclobutyl 6-oxo-7-oxa-2,5-diazaspiro[3.4]octane-2-carboxylate] | 101 | – | – | – | – | –
O=C1NC2(CO1)CN(C(=O)O[C@H]1C[C@@H](Oc3cc(F)c(F)cc3F)C1)C2 [Example 57, cis-3-(2,4,5-trifluorophenoxy)cyclobutyl 6-oxo-7-oxa-2,5-diazaspiro[3.4]octane-2-carboxylate] | 100 | – | – | – | – | –
C[C@]1(OC(=O)N2CC3(COC(=O)N3)C2)C[C@@H](OCc2ccccc2)C1 [Example 58, cis-3-(benzyloxy)-1-methylcyclobutyl 6-oxo-7-oxa-2,5-diazaspiro[3.4]octane-2-carboxylate] | 93 | – | – | – | – | –
C[C@]1(OC(=O)N2CC3(COC(=O)N3)C2)C[C@H](OCc2ccccc2)C1 [Example 59, trans-3-(benzyloxy)-1-methylcyclobutyl 6-oxo-7-oxa-2,5-diazaspiro[3.4]octane-2-carboxylate] | 99 | – | – | – | – | –
C[C@]1(OC(=O)N2CC3(COC(=O)N3)C2)C[C@@H](Oc2c(F)cc(F)cc2F)C1 [Example 60, cis-1-methyl-3-(2,4,6-trifluorophenoxy)cyclobutyl 6-oxo-7-oxa-2,5-diazaspiro[3.4]octane-2-carboxylate] | 98 | – | – | – | – | –
C[C@]1(OC(=O)N2CC3(COC(=O)N3)C2)C[C@H](Oc2c(F)cc(F)cc2F)C1 [Example 61, trans-1-methyl-3-(2,4,6-trifluorophenoxy)cyclobutyl 6-oxo-7-oxa-2,5-diazaspiro[3.4]octane-2-carboxylate] | 100 | – | – | – | – | –
O=C1NC2(CO1)CN(C(=O)O[C@H]1C[C@H](OCc3ccc(C(F)(F)F)cc3F)C1)C2 [Example 62, trans-3-((2-fluoro-4-(trifluoromethyl)benzyl)oxy)cyclobutyl 6-oxo-7-oxa-2,5-diazaspiro[3.4]octane-2-carboxylate] | 99 | – | – | – | – | –
C[C@]1(Oc2ccc(F)cc2Cl)C[C@@H](OC(=O)N2CC3(COC(=O)N3)C2)C1 [Example 63, cis-3-(2-chloro-4-fluorophenoxy)-3-methylcyclobutyl 6-oxo-7-oxa-2,5-diazaspiro[3.4]octane-2-carboxylate] | 100 | – | – | – | – | –
